Laboratory results reported in patent US8603539B2, “Compositions for drug delivery” (Dr. Reddy's Laboratories Limited, priority 2005, dated 2013).

System: New Zealand white rabbits
Assay: Comparative dermal irritation study (PDII)
Details: rabbit skin, patch 24 hours; erythema and edema scores at 25, 48 and 72 hours
Experimental: Six male New Zealand white rabbits of age between 10 to 15 months and weight in the range of 2 to 3 Kg were used in the study. […] The hair on the backs of the rabbits was clipped and approximately 0.5 g of Test or Reference or Control 2 was placed on a gauze patch and was applied to the skin site. Separate gauze patches containing Test, Reference and Control 2 were applied on the back. The patches were moistened with 0.5 ml physiological saline after application. 0.5 ml of Control 1 was injected into a fourth gauze patch after applying the patch on the skin. The patches were removed after 24 hours.
The test and control items were categorized based on the Primary Dermal Irritation Index (PDII). The PDII was determined as the ratio of total irritation score (TIS) and total number of observations. The TIS was calculated by adding the subtotal values for erythema and edema. The subtotal values for erythema and edema were separately calculated by adding the irritation scores at 25, 48 and 72 hours post-application. The following scoring criteria were used as described in the literature (S. C. Gad et al., Acute Toxicology Testing: Perspectives and Horizons, The Telford Press, Inc., Caldwell, N.J., 1988):

SMILES: CCCCCCCCCCCCOS(=O)(=O)[O-].[Na+] [Control 1, sodium lauryl sulphate]
- PDII (Primary Dermal Irritation Index): 0.44
